Measurements published in patent US12569471B2, “Method of treatment of CNS disorders” (Supernus Pharmaceuticals, Inc., priority 2009, dated 2026).

How the values were obtained:
[1] = target: T1, Delta2(h) opioid receptor (Homo sapiens, UniProt P41143); assay: heterologous competition (displacement) assay, delta opioid receptor; assay type: binding; settings: 10 μM mazindol; [3H] [D-Ala2, D-Leu5] enkephalin 0.5 nM; 120 min/22° C.
T1 construct: expressed in transfected cells; host or cells: CHO cell line
Description: (§1) A heterologous competition assay was used to determine the relative affinity of mazindol for opioid receptors. Briefly, recombinant μ-, κ- or δ-opioid receptors were expressed in a CHO cell line. The receptors were then saturated with a tritiated receptor-specific ligand at concentrations known to be saturating. Thereupon, 10 μM mazindol was added to the cells in the presence of non-specific ligand and incubated. In this way, mazindol was allowed to “compete” with the receptor-specific ligand, such that greater displacement (i.e., % inhibition) is indicative of greater binding strength of mazindol at a given receptor. “Specific binding” refers here to the difference in the binding of the ligand to the receptors in the presence or absence of an excess of the mazindol.

[2] = target: T2, Kappa (rat) opioid receptor (Rattus norvegicus, UniProt P34975); assay: heterologous competition (displacement) assay, kappa opioid receptor; assay type: binding; settings: 10 μM mazindol; [3H]U 69593 1 nM; 60 min/22° C.
T2 construct: expressed in transfected cells; host or cells: CHO cell line
Description: as §1

human μ-opioid receptor = target: T3, human μ-opioid receptor (Homo sapiens, UniProt P35372); assay: heterologous competition (displacement) assay and IC50 determination, μ-opioid receptor; assay type: binding; set-up: binding at the μ-opioid receptor (specific binding), 1st test / binding at the μ-opioid receptor (specific binding), 2nd Test / binding at the μ-opioid receptor (specific binding), Mean: unit not given here
T3 construct: expressed in transfected cells; host or cells: CHO cell line
Description: as §1
For this experiment, a range of mazindol concentrations was selected for the ligand blocking assay. The IC50 was determined using non-linear regression analysis of the competition curves using a Hill equation curve fitting (Y=D+[(A−D)/(1+(C/C50)nH)], where Y=specific binding, D=minimum specific binding, A=maximum specific binding, C=compound concentration, C50=IC50, and nH=slope factor). The inhibition constants Ki were calculated using Cheng Prusoff equation. Ki is defined as the concentration of the competing ligand (mazindol) that bound to half the binding sites at equilibrium in the absence of radioligand or other competitors.

[3] = target: dopamine reuptake transporter (Homo sapiens, UniProt Q01959); settings: background statement; cited from earlier work
[4] = target: noradrenergic reuptake transporter (Homo sapiens, UniProt P23975); settings: background statement; cited from earlier work
[5] = target: serotonergic reuptake transporter (Homo sapiens, UniProt P31645); settings: background statement; cited from earlier work
H1 receptor = H1 receptor (Homo sapiens, UniProt P35367); settings: background statement; cited from earlier work
[6] = target: T4, μ-opioid receptors in the guinea pig ileum (Cavia porcellus, UniProt A0ACM8Q262); assay: μ-opioid receptor bioassay, test for agonist activity (twitch contraction amplitude); settings: for agonist activity: decrease in twitch contraction amplitude / agonist activity: decrease in twitch contraction amplitude, +Naloxone: mean, n=2
[7] = target: T4, μ-opioid receptors in the guinea pig ileum; assay: μ-opioid receptor bioassay, test for antagonist activity (DAMGO-induced decrease in twitch contraction amplitude); settings: for antagonist activity: response to DAMGO (1.0E−07M) in presence of compound: mean, n=2

SMILES: OC1(c2ccc(Cl)cc2)c2ccccc2C2=NCCN21 (stereo not shown) [mazindol, 5-(p-chloropheny)-2,5-dihydro-3H-imidazo[2,1-a] isoindol-5-ol]
- inhibition at 10 µM [1]: 14%
- % Inhib. [2]: 33%
- IC50 (human μ-opioid receptor): 690 nM
- Ki (human μ-opioid receptor): 280 nM
- inhibition at 10 µM (human μ-opioid receptor; 10 μM mazindol, [3H] Ala2-MePhe4-Gly5-Enkephalin 0.5 nM, 120 min/22° C.): 84%
- nH (slope factor) (human μ-opioid receptor; M (h) (MOP) (agonist site)): 0.8
- binding at the μ-opioid receptor (specific binding), 1st test (human μ-opioid receptor; mazindol 1.0E−04 M): 5.8
- binding at the μ-opioid receptor (specific binding), 2nd Test (human μ-opioid receptor; mazindol 1.0E−04 M): 7.4
- binding at the μ-opioid receptor (specific binding), Mean (human μ-opioid receptor; mazindol 1.0E−04 M): 6.6
- binding at the μ-opioid receptor (specific binding), 1st test (human μ-opioid receptor; mazindol 1.0E−05 M): 12.6
- binding at the μ-opioid receptor (specific binding), 2nd Test (human μ-opioid receptor; mazindol 1.0E−05 M): 13.0
- binding at the μ-opioid receptor (specific binding), Mean (human μ-opioid receptor; mazindol 1.0E−05 M): 12.8
- binding at the μ-opioid receptor (specific binding), 1st test (human μ-opioid receptor; mazindol 1.0E−06 M): 42.4
- binding at the μ-opioid receptor (specific binding), 2nd Test (human μ-opioid receptor; mazindol 1.0E−06 M): 41.7
- binding at the μ-opioid receptor (specific binding), Mean (human μ-opioid receptor; mazindol 1.0E−06 M): 42.0
- binding at the μ-opioid receptor (specific binding), 1st test (human μ-opioid receptor; mazindol 1.0E−07 M): 83.2
- binding at the μ-opioid receptor (specific binding), 2nd Test (human μ-opioid receptor; mazindol 1.0E−07 M): 83.2
- binding at the μ-opioid receptor (specific binding), Mean (human μ-opioid receptor; mazindol 1.0E−07 M): 83.2
- binding at the μ-opioid receptor (specific binding), 1st test (human μ-opioid receptor; mazindol 3.0E−05 M): 9.1
- binding at the μ-opioid receptor (specific binding), 2nd Test (human μ-opioid receptor; mazindol 3.0E−05 M): 7.6
- binding at the μ-opioid receptor (specific binding), Mean (human μ-opioid receptor; mazindol 3.0E−05 M): 8.3
- binding at the μ-opioid receptor (specific binding), 1st test (human μ-opioid receptor; mazindol 3.0E−06 M): 24.7
- binding at the μ-opioid receptor (specific binding), 2nd Test (human μ-opioid receptor; mazindol 3.0E−06 M): 26.4
- binding at the μ-opioid receptor (specific binding), Mean (human μ-opioid receptor; mazindol 3.0E−06 M): 25.5
- binding at the μ-opioid receptor (specific binding), 1st test (human μ-opioid receptor; mazindol 3.0E−07 M): 58.2
- binding at the μ-opioid receptor (specific binding), 2nd Test (human μ-opioid receptor; mazindol 3.0E−07 M): 60.9
- binding at the μ-opioid receptor (specific binding), Mean (human μ-opioid receptor; mazindol 3.0E−07 M): 59.5
- binding at the μ-opioid receptor (specific binding), 1st test (human μ-opioid receptor; mazindol 3.0E−08 M): 102.1
- binding at the μ-opioid receptor (specific binding), 2nd Test (human μ-opioid receptor; mazindol 3.0E−08 M): 97.5
- binding at the μ-opioid receptor (specific binding), Mean (human μ-opioid receptor; mazindol 3.0E−08 M): 99.8
- binding activity at dopamine reuptake transporter [3]: specific inhibitory binding activity
- binding activity at noradrenergic reuptake transporter [4]: specific inhibitory binding activity
- binding activity at serotonergic reuptake transporter [5]: specific inhibitory binding activity
- binding at the H1 receptor (H1 receptor): moderately potent binding
- agonist activity: decrease in twitch contraction amplitude ([6]; compound 1.0E−05 M): 94% of the control response to DAMGO
- agonist activity: decrease in twitch contraction amplitude ([6]; compound 1.0E−06 M): 25% of the control response to DAMGO
- agonist activity: decrease in twitch contraction amplitude ([6]; compound 1.0E−07 M): 1% of the control response to DAMGO
- agonist activity: decrease in twitch contraction amplitude, +Naloxone ([6]; compound 3.0E−05M + Naloxone (1.0E−07M)): 5% of the control response to DAMGO
- agonist activity: decrease in twitch contraction amplitude ([6]; compound 3.0E−05 M): 103% of the control response to DAMGO
- agonist activity: decrease in twitch contraction amplitude ([6]; compound 3.0E−06 M): 64% of the control response to DAMGO
- agonist activity: decrease in twitch contraction amplitude ([6]; compound 3.0E−07 M): 9% of the control response to DAMGO
- effect on twitch contraction amplitude ([6]; guinea pig ileum): concentration-dependent decrease in the twitch contraction amplitude
- nature of the binding (agonist or antagonist) at the μ-opioid receptors ([6]; guinea pig ileum): behaves as an agonist
- reversal of the agonist-like response by reference antagonist naloxone ([6]; guinea pig ileum): fully reversed by naloxone
- EC50 ([6]; read-out: Agonist activity EC50 value, guinea pig ileum, linear regression of concentration-response curve): 2000 nM
- antagonist activity: response to DAMGO (1.0E−07M) in presence of compound ([7]; compound 1.0E−05 M): 105% of the control response to DAMGO
- antagonist activity: response to DAMGO (1.0E−07M) in presence of compound ([7]; compound 1.0E−06 M): 100% of the control response to DAMGO
- antagonist activity: response to DAMGO (1.0E−07M) in presence of compound ([7]; compound 1.0E−07 M): 100% of the control response to DAMGO
- antagonist activity: response to DAMGO (1.0E−07M) in presence of compound ([7]; compound 3.0E−05 M): 107% of the control response to DAMGO
- antagonist activity: response to DAMGO (1.0E−07M) in presence of compound ([7]; compound 3.0E−06 M): 102% of the control response to DAMGO
- antagonist activity: response to DAMGO (1.0E−07M) in presence of compound ([7]; compound 3.0E−07 M): 100% of the control response to DAMGO
- Antagonist activity IC50 value ([7]; guinea pig ileum): no antagonist effect
- concentrations causing a further decrease in twitch contraction amplitude beyond DAMGO ([7]; guinea pig ileum): higher than 1.0E-06 M
- effect on the DAMGO-induced decrease in twitch contraction amplitude ([7]; guinea pig ileum): did not reverse the DAMGO-induced decrease in twitch contraction amplitude

SMILES: C[C@@H](NC(=O)[C@@H](N)Cc1ccc(O)cc1)C(=O)NCC(=O)N(C)[C@@H](Cc1ccccc1)C(=O)NCCO [DAMGO]
- agonist activity: decrease in twitch contraction amplitude, +Naloxone ([6]; compound 1.0E−07M + Naloxone (1.0E−07M)): −10% of the control response to DAMGO
- agonist activity: decrease in twitch contraction amplitude ([6]; compound 1.0E−07 M): 104% of the control response to DAMGO
- agonist activity: decrease in twitch contraction amplitude ([6]; compound 1.0E−08 M): 62% of the control response to DAMGO
- agonist activity: decrease in twitch contraction amplitude ([6]; compound 1.0E−09 M): 14% of the control response to DAMGO
